# Laboratory results: patent US20040086995A1, “Beta1, 4-N-Acetylgalactosaminyltransferases, nucleic acids and methods of use thereof” (priority 2002, published 2004)
# B1: a-lactalbumin: modifier protein expressed in lactating mammary glands, associates with β4GalT I and switches its acceptor specificity (protein, UniProt P00709 20-142, looked up)
# Alpha-lactalbumin: KQFTKCELSQLLKDIDGYGGIALPELICTMFHTSGYDTQAIVENNESTEYGLFQISNKLWCKSSQVPQSRNICDISCDKFLDDDITDDIMCAKKILDIKGIDYWLAHKALCTEKLEQWLCEKL
# How the values were obtained:
# SH-Ceβ4GalNAcT [1] = biological target: T1, SH-Ceβ4GalNAcT (Caenorhabditis elegans, UniProt Q9GUM2); assay: β4GalNAcT assay, effect of α-lactalbumin on acceptor use; assay type: biochemical, C. elegans; conditions: for Relative activity (%): UDPGalNAc 0.5 mM, GlcNAc 1 mM or Glc 30 mM
# T1 construct: the catalytic domain of the Ceβ4GalNAcT (beginning at K34, the first amino acid after the transmembrane domain); signal peptide (from vector pcDNA3.1(+)-TH) (N); made in house; host or cells: CHO-Lec8 (and CHO-Lec2) cells, stably transfected; enzyme captured from the culture medium on HPC4-UltraLink beads
# Experimental: (§1) Purification of SH-C.E.β4GalNAcT—Medium containing SH-Ceβ4GalNAcT was centrifuged at 1,500×g for 5 min to remove cellular debris, and then incubated with HPC4-UltraLink beads (5 mg HPC4 antibody per ml of beads; 0.1 ml of beads per ml of medium) for one hour at room temperature on a rotating platform. The beads were collected by centrifugation at 600×g for 3 min, and washed three times with 10 ml of 100 mM sodium cacodylate pH 7.0, 2 mM CaCl2. The beads were then resuspended in the same buffer with the addition of 20 mM MnCl2, and used as the enzyme source. For Western blot analysis, the bound material was released by incubating the beads in a buffer of 50 mM sodium cacodylate pH 7.0, 20 mM EDTA for 10 min at room temperature, then collecting the supernatant.
# (§2) β4GalNAcT assays—Standard assays were performed essentially as described previously (40) in a […] reaction mixture containing […] sodium cacodylate pH 7.2, 12.5 nmol UDP-[^3H]GalNAc (2.5 Ci/mol), […] MnCl2, […] ATP, […] Triton X-100, […] beads and acceptor substrate, containing 25 nmol of terminal GlcNAc at the non-reducing end unless otherwise indicated. Control assays lacking the acceptor substrate were carried out to correct for incorporation into endogenous acceptors, and all assays were carried out in duplicate. After incubation at 37° C. for 180 min the reaction was stopped. When oligosaccharides or glycopeptides were the acceptor, the labeled product was separated from unincorporated label by chromatography on a 1-ml column of Dowex 1-X8 (Cl^−-form) according to Easton et al., (44). When oligosaccharide acceptors with hydrophobic aglycon (pNP) were used as the acceptor, the product was isolated using Sep-pak C-18 cartridges (Waters) as described (45). The isolated products were assayed for incorporation of radioactivity by liquid scintillation.
# SH-Ceβ4GalNAcT [2] = biological target: T1, SH-Ceβ4GalNAcT; assay: β4GalNAcT assay, acceptor specificity; assay type: biochemical, C. elegans
# Experimental: as §1
# β4GalNAcT assays—Standard assays were performed essentially as described previously (40) in a […] reaction mixture containing […] sodium cacodylate pH 7.2, 12.5 nmol UDP-[^3H]GalNAc (2.5 Ci/mol), […] MnCl2, […] ATP, […] Triton X-100, […] beads and acceptor substrate, containing 25 nmol of terminal GlcNAc at the non-reducing end unless otherwise indicated. Control assays lacking the acceptor substrate were carried out to correct for incorporation into endogenous acceptors, and all assays were carried out in duplicate. […] The isolated products were assayed for incorporation of radioactivity by liquid scintillation.
# SH-Ceβ4GalNAcT [3] = biological target: T1, SH-Ceβ4GalNAcT; assay: β4GalNAcT assay, sugar nucleotide (donor) specificity; assay type: biochemical, C. elegans; conditions: for Relative activity (%): acceptor GlcNAcβ-S-pNP 1 mM, donor 0.5 mM, enzyme on HPC4-beads, 100% = UDP-GalNAc
# Experimental: as §1, §2
# [4] = biological target: SH-Ceβ4GalNAcT (soluble, HPC4-epitope tagged form of C. elegans UDPGalNAc:GlcNAcβ-R β1,4-N-acetylgalactosaminyltransferase, encoded by Y73E7A.7) (C. elegans); assay: cell-based or functional assay
# SH-Ceβ4GalNAcT (soluble, HPC4-epitope tagged form of C. elegans UDPGalNAc:GlcNAcβ-R β1,4-N-acetylgalactosaminyltransferase, encoded by Y73E7A.7) (C. elegans), sequence (Q9GUM2 34-383): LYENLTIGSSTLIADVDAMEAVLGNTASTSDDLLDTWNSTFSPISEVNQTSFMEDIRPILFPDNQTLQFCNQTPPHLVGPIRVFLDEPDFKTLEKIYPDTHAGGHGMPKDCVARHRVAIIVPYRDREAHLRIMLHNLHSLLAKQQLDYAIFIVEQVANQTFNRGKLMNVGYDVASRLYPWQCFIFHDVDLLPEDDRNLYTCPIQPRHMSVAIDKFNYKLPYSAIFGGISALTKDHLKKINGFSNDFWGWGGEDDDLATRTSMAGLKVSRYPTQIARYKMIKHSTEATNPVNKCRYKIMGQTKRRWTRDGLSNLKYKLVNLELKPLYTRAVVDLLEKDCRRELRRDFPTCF
# T1 sequence (Q9GUM2 30-383 limits assumed): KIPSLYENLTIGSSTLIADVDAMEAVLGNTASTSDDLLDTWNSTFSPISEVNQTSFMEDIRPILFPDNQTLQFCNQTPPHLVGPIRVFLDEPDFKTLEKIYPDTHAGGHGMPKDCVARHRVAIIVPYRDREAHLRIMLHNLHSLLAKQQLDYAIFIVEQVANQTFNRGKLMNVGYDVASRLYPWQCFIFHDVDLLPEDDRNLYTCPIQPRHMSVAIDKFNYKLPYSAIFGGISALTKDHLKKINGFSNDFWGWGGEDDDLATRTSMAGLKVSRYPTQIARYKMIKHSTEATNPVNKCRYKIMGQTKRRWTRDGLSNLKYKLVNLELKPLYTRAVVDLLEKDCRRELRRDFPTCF
Molecule,Relative activity (%) (SH-Ceβ4GalNAcT [1]; with a-Lactalbumin 5 mg/ml),Relative activity (%) (SH-Ceβ4GalNAcT [1]; without a-Lactalbumin),utilization as nucleotide-sugar donor (SH-Ceβ4GalNAcT [3]),Relative activity (%) (SH-Ceβ4GalNAcT [3]),further results
"CC(=O)N[C@@H]1[C@@H](O)[C@H](O)[C@@H](CO)O[C@H]1O [Acceptor 9, GlcNAc]",40,100,–,–,utilization as acceptor substrate (SH-Ceβ4GalNAcT [2]): efficiently utilized
OC[C@H]1OC(O)[C@H](O)[C@@H](O)[C@@H]1O (stereo partly drawn) [Glc],6,3,–,–,–
CC(=O)N[C@H]1[C@@H](OP(=O)(O)OP(=O)(O)OC[C@H]2O[C@@H](n3ccc(=O)[nH]c3=O)[C@H](O)[C@@H]2O)O[C@H](CO)[C@H](O)[C@@H]1O [UDP-GalNAc],–,–,efficiently utilized,100,–
CC(=O)N[C@H]1[C@@H](OP(=O)(O)OP(=O)(O)OC[C@H]2O[C@@H](n3ccc(=O)[nH]c3=O)[C@H](O)[C@@H]2O)O[C@H](CO)[C@@H](O)[C@@H]1O [UDP-GlcNAc],–,–,did not significantly utilize,0.7,–
α-lactalbumin,–,–,–,–,Relative activity (%) of SH-Ceβ4GalNAcT with Glc (30 mM) as acceptor in the presence of a-lactalbumin (5 mg/ml); 3 without it [4]: 6%; Relative activity (%) of SH-Ceβ4GalNAcT with GlcNAc (1 mM) as acceptor in the presence of a-lactalbumin (5 mg/ml); 100 without it [4]: 40%
B1,–,–,–,–,effect of α-lactalbumin on acceptor specificity (SH-Ceβ4GalNAcT [1]): did not induce SH-Ceβ4GalNAcT to utilize Glc as an acceptor instead of GlcNAc
